Values of other authors in patent US20210236583A1, “Targeting the renin-angiotensin system for treatment of environment-and pathogen-induced lung injury” (priority 2020, published 2021).

System: mice
Settings: direct injection of recombinant ACE2 protein

In the case of “recombinant ACE2 protein: recombinant ACE2 protein injected directly, from the literature (Imai et al., 2005)”, the “protection from severe acute lung injury” value is given as “protect mice from severe acute lung injury”.
